In US20240166598A1, “COMPOUNDS, COMPOSITIONS, AND METHODS OF USING THE SAME” (priority 2021, published 2024):

Experiments:
SARS CoV-2 PLpro [1] = biological target: T1, SARS CoV-2 PLpro (Severe acute respiratory syndrome coronavirus 2 (2019-nCoV) (SARS-CoV-2), UniProt P0DTD1); assay: biochemical; conditions: Table 8; read-out: FRET Enzymatic assay IC50
SARS CoV-2 PLpro [2] = biological target: T1, SARS CoV-2 PLpro; assay: cell-based; conditions: read-out: FlipGFP-PLpro assay EC50
[3] = tested on: SARS-CoV-2, Isolate USA-WA1/2020; assay: microbe, parasite or virus in culture; format: cell-based; conditions: for EC50: Severe acute respiratory syndrome coronavirus 2, Vero C1008, read-out: EC50 against infectious SARS-CoV-2 (plaque formation)
Vero E6 cells = conditions: African green monkey
SARS CoV-2 PLpro [4] = biological target: T1, SARS CoV-2 PLpro; assay: biochemical; format: binding
[5] = for In vitro CIint / Scale-up CIint: human
in vitro [6] = conditions: human, microsomes
SARS CoV-2 PLpro [7] = biological target: T1, SARS CoV-2 PLpro; format: biochemical; conditions: 20 μM
human USP7 = human USP7 (Homo sapiens (Human), UniProt Q93009); assay: USP7 selectivity counter-assay (Ub-AMC); format: biochemical; conditions: catalytic domain of human USP7; up to 30 μM for CPI-169
Procedure: (§1) Assay conditions were similar to the PLpro primary assay, with the following substitutions: USP7 assays contained 4 nM USP7 and 0.5 uM Ub-AMC (Boston Biochem); USP14 assays contained 1.7 uM USP14, 4 uM Ub-AMC, and the addition of 5% glycerol to Buffer B. PLpro activity with ISG15-AMC and Ub-AMC were assayed in a manner similar to the PLpro primary assay. PLpro and substrate concentrations were modified as follows: 80 nM PLpro was assayed with 0.5 uM Ub-AMC, and 4 nM PLpro was assayed with 0.5 uM ISG15-AMC.
as §1, with “to Buffer B.PLpro activity with” for “to Buffer B. PLpro activity with”, “with 0.5 μM ISG15-AMC.” for “with 0.5 uM ISG15-AMC.”

SARS-CoV-2 USA/WA1/2020 = assay: microbe, parasite or virus in culture; format: cell-based; conditions: for IC50: Severe acute respiratory syndrome coronavirus 2, 48 h, read-out: IC50 (viral RNA by RT-qPCR)
in vitro [8] = conditions: human, Caco-2
A549-hACE2 cells = assay: Cytotoxicity in A549-hACE2 cells (CellTiter-Glo); conditions: assay conditions

human USP7, sequence (Q93009 214-521 limits assumed): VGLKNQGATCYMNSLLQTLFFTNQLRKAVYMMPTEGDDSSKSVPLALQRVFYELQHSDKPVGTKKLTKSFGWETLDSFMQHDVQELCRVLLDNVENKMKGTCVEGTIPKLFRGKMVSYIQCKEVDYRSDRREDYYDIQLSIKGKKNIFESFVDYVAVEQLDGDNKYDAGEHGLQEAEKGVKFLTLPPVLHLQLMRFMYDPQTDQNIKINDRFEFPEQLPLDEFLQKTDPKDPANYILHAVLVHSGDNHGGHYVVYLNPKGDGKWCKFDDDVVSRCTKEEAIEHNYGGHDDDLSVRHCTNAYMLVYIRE

SMILES: Cc1ccc(OC2CNC2)cc1C(=O)N[C@H](C)c1cccc(-c2ccc(CN[C@H]3CC[C@@H](C(=O)OC[C@H]4O[C@@H](n5ccc(NO)nc5=O)[C@H](O)[C@@H]4O)C3)s2)c1
- IC50 (SARS CoV-2 PLpro [1]): 0.75 ± 0.05 µM
- EC50 (SARS CoV-2 PLpro [2]): > 20 µM

SMILES: Cc1ccc(OC2CNC2)cc1C(=O)N[C@H](C)c1cccc(-c2ccc(CN[C@H]3CC[C@@H](C(=O)NCCOCCOCCOCCOCCNc4cccc5c4C(=O)N(C4CCC(=O)NC4=O)C5=O)C3)s2)c1 (stereo partly shown)
- IC50 (SARS CoV-2 PLpro [1]): 1.67 ± 0.33 µM
- EC50 (SARS CoV-2 PLpro [2]): > 20 µM

SMILES: Cc1ccc(OC2CNC2)cc1C(=O)N[C@H](C)c1cccc(-c2ccc(CN3CCCC3)o2)c1
- IC50 (SARS CoV-2 PLpro [1]): 4.58 ± 0.92 µM
- EC50 (SARS CoV-2 PLpro [2]): > 60 µM

SMILES: Cc1ccc(OC2CNC2)cc1C(=O)N[C@H](C)c1cccc(-c2ccc(CN[C@H]3CC[C@@H](O)C3)o2)c1
- IC50 (SARS CoV-2 PLpro [1]): 3.02 ± 0.58 µM
- EC50 (SARS CoV-2 PLpro [2]): > 60 µM

SMILES: Cc1ccc(NC2CNC2)cc1C(=O)N[C@H](C)c1cccc(-c2ccc(CN[C@H]3CC[C@@H](O)C3)s2)c1 (single isomer, unassigned) [XR8-89]
- antiviral activity, in words [3]: superior antiviral potency to GRL017
- concentration at which no toxicity was observed (Vero E6 cells): < 50 µM

SMILES: Cc1ccc(NC2CNC2)cc1C(=O)N[C@H](C)c1cccc(-c2cccs2)c1 (single isomer, unassigned) [ZN-3-80]
- Ave ka (SARS CoV-2 PLpro [4]; SPR association rate, average of replicates): 351000 M⁻¹ s⁻¹
- ka1 (SARS CoV-2 PLpro [4]; SPR association rate, replicate 1): 291000 M⁻¹ s⁻¹
- ka2 (SARS CoV-2 PLpro [4]; SPR association rate, replicate 2): 334000 M⁻¹ s⁻¹
- ka3 (SARS CoV-2 PLpro [4]; SPR association rate, replicate 3): 303000 M⁻¹ s⁻¹
- ka4 (SARS CoV-2 PLpro [4]; SPR association rate, replicate 4): 477000 M⁻¹ s⁻¹
- Ave kd (SARS CoV-2 PLpro [4]; SPR dissociation rate, average of replicates): 0.327 s⁻¹
- kd1 (SARS CoV-2 PLpro [4]; SPR dissociation rate, replicate 1): 0.318 s⁻¹
- kd2 (SARS CoV-2 PLpro [4]; SPR dissociation rate, replicate 2): 0.369 s⁻¹
- kd3 (SARS CoV-2 PLpro [4]; SPR dissociation rate, replicate 3): 0.290 s⁻¹
- kd4 (SARS CoV-2 PLpro [4]; SPR dissociation rate, replicate 4): 0.332 s⁻¹
- In vitro CIint [5]: 5.64 μL/min/mg protein
- Scale-up CIint [5]: 7.07 mL/min/kg
- stability in human liver microsome stability assays, in words ([5]; microsomes): more stable than GRL0617
- half-life (in vitro [6]): 4.1 h

SMILES: CC(C)c1cc(C(C)C)c(CC(=O)NS(=O)(=O)Oc2c(C(C)C)cccc2C(C)C)c(C(C)C)c1 [Avasimibe]
- result in the PLpro screen, in words (SARS CoV-2 PLpro [7]): weak PLpro inhibitors

SMILES: CCS(=O)(=O)N1CCC([C@@H](C)n2c(C)c(C(=O)NCc3c(OC)cc(C)[nH]c3=O)c3ccccc32)CC1 [CPI-169]
- inhibition of USP7-catalyzed Ub-AMC hydrolysis (human USP7): not able to inhibit USP7 up to a concentration of 30 μM

SMILES: Cc1ccc(N)cc1C(=O)N[C@H](C)c1cccc2ccccc12 [GRL0617, reference compound]
- inhibition of USP7-catalyzed Ub-AMC hydrolysis (human USP7): did not inhibit
- EC50 [3]: 21.7 ± 1.6 µM
- IC50 (SARS-CoV-2 USA/WA1/2020): > 20 µM
- Papp A→B (in vitro [8]): 12.4 ×10⁻⁶ cm/s
- Papp B→A (in vitro [8]): 12.9 ×10⁻⁶ cm/s

SMILES: Cc1ccc(NC2CNC2)cc1C(=O)N[C@H](C)c1cccc(-c2ccc(CNC3CCCC3)s2)c1 [XR8-23]
- In vitro CIint [5]: 5.89 μL/min/mg protein
- Scale-up CIint [5]: 7.38 mL/min/kg
- concentration at which no toxicity was observed (Vero E6 cells): < 50 µM
- half-life (in vitro [6]): 3.92 h
- Papp A→B (in vitro [8]): 0.16 ×10⁻⁶ cm/s
- Papp B→A (in vitro [8]): 1.56 ×10⁻⁶ cm/s
- concentration at which cytotoxicity was not observed (A549-hACE2 cells): < 10 µM

SMILES: Cc1ccc(NC2CNC2)cc1C(=O)N[C@H](C)c1cccc(-c2ccc(CN3CCCC3)s2)c1 [XR8-24]
- EC50 [3]: 2.5 ± 1.9 µM
- effect of treatment on viral RNA versus remdesivir (10 μM) (SARS-CoV-2 USA/WA1/2020; 20 μM): not significantly different from that of remdesivir
- IC50 (SARS-CoV-2 USA/WA1/2020): 1.2 ± 0.2 µM
- In vitro CIint [5]: 9.60 μL/min/mg protein
- Scale-up CIint [5]: 12.04 mL/min/kg
- concentration at which no toxicity was observed (Vero E6 cells): < 50 µM
- half-life (in vitro [6]): 2.41 h
- Papp A→B (in vitro [8]): 0.14 ×10⁻⁶ cm/s
- Papp B→A (in vitro [8]): 3.06 ×10⁻⁶ cm/s
- concentration at which cytotoxicity was not observed (A549-hACE2 cells): < 50 µM

SMILES: Cc1ccc(NC2CNC2)cc1C(=O)N[C@H](C)c1cccc(-c2ccc(CN3CC[C@H](O)C3)s2)c1 [XR8-57]
- In vitro CIint [5]: 0.27 μL/min/mg protein
- Scale-up CIint [5]: 0.34 mL/min/kg
- half-life (in vitro [6]): 85.4 h

SMILES: CCOc1nc2cccc(C(=O)O)c2n1Cc1ccc(-c2ccccc2-c2nnn[nH]2)cc1 [candesartan]
- result in the PLpro screen, in words (SARS CoV-2 PLpro [7]): weak PLpro inhibitors
